Measurements reported in patent US8232315B2, “Methods for treating drug addiction and improving addiction-related behavior” (SK Biopharmaceuticals Co., Ltd., priority 2009, dated 2012).
Entries after “also recorded” stand apart in the source; their conditions may differ. Where two headings read alike, the source gives them in different places.

Test system: monkeys trained to discriminate cocaine (0.40 mg/kg) from saline
Experiment: Cocaine drug discrimination (substitution protocol) in rhesus monkeys
Type: in vivo, rhesus monkeys (Macaca mulatta)
Settings: for ED50: Primates, in Macaca mulatta, cumulative dosing, read-out: ED50 in producing cocaine-appropriate responding; for Effect on response rates: substituting doses of test compound / training dose of cocaine, relative to saline control
Source text: Subjects: The subjects were four male rhesus monkeys (Macaca mulatta) each weighing 7.0-8.0 kg. Each monkey was maintained on a diet of 7-12 monkey biscuits (Purina Monkey Chow Jumbo #5037) and one piece of fresh fruit per day. During the week, all food was delivered after the experimental session, whereas on weekends, food was delivered between 9 a.m. and noon. Water was freely available at all times. The room in which the monkeys were housed was maintained on a 12-hr light/dark cycle, with lights on from 7 a.m. to 7 p.m.
Apparatus: Each monkey was housed individually in a well-ventilated, stainless steel chamber (56×71×69 cm). The home cages of all monkeys were modified to include an operant panel (28×28 cm) mounted on the front wall. Three square translucent response keys (6.4×6.4 cm) were arranged 2.54 cm apart in a horizontal row 3.2 cm from the top of the operant panel. Each key could be transilluminated by red or green stimulus lights (Superbright LED'S). In addition, the operant panel supported an externally mounted pellet dispenser (Gerbrands, Model G53 10, Arlington, Mass.) that delivered 1 gm fruit-flavored food pellets (Precision Primate Pellets Formula L/I Banana Flavor, P. J. Noyes Co., Lancaster, N.H.) to a food receptacle mounted on the cage beneath the operant response panel. Operation of the operant panels and data collection were accomplished with IBM-compatible computers and interface systems (MedAssociates; St. Albans, Vt.) located in a separate room.
Discrimination Training: Discrimination training was conducted 5 days per week during daily sessions composed of multiple cycles. Each cycle consisted of a 15-min time-out period followed by a 5-min response period. During the time-out, all stimulus lights were off, and responding had no scheduled consequences. During the response period, the right and left response keys were transilluminated red or green, and monkeys could earn up to 10 food pellets by responding under a FR 30 schedule of food presentation. For all four monkeys in this study, the left key was illuminated green, and the right key was illuminated red. The center key was not illuminated at any time, and responding on the center key had no scheduled consequences. If all available food pellets were delivered before the end of the 5-min response period, the stimulus lights transilluminating the response keys were turned off, and responding had no scheduled consequences for the remainder of the 5-min period.
On training days, monkeys were given an i.m. injection of either saline or 0.40 mg/kg cocaine 5-min after the beginning of each time-out period (i.e., 10 min before the response period). Following the administration of saline, responding on only the green key (the saline-appropriate key) produced food, whereas following administration of 0.40 mg/kg cocaine, only responding on the red key (the drug-appropriate key) produced food. Responses on the inappropriate key reset the FR requirement on the appropriate key. Sessions consisted of 1 to 5 cycles, and if the training dose of cocaine was administered, it was administered only during the last cycle. Thus, training days consisted of 0 to 5 saline cycles followed by 0 to 1 drug cycles.
During each response period, 3 dependent variables were determined using the following equations.
1) Percent injection-appropriate responding prior to delivery of the first reinforcer.
2) Percent injection-appropriate responding for the entire response period.
Monkeys were considered to have acquired cocaine discrimination when the following three criteria were met for 7 of 8 consecutive training sessions: 1) the percent injection-appropriate responding prior to delivery of the first reinforcer was greater than or equal to 80% for all cycles; 2) the percent injection-appropriate responding for the entire cycle was greater than or equal to 90% for all cycles; 3) response rates during saline training cycles were greater than 0.5 responses per second. […]

NC(=O)OC[C@H](N)Cc1ccccc1 [test compound, O-carbamoyl-(D)-phenylalaminol]
ED50 (monkey 92N012): 1.8 mg/kg
ED50 (monkey 153F): 5.6 mg/kg
ED50 (monkey 186F): 13.4 mg/kg
ED50 (monkey L958): 5.6 mg/kg
Overt behavioral effects (across the dose range tested (0.1-18 mg/kg)): did not produce noticeable overt behavioral effects
Substitution for the cocaine training stimulus (all four monkeys, 0.1-18 mg/kg): dose-dependent and complete substitution; also recorded: substituted completely
Effect on response rates (monkey 92N012): increased response rates
Effect on response rates (monkey 153F): decreased response rates
Effect on response rates (monkey 186F): had no effect on response rates
Potency relative to cocaine (fold less potent) (rhesus monkeys, cocaine-like behavioral effects): approximately 20 fold
